Measured values published in patent US20250367230A1, “Method for preparing SAMe microcapsules” (XIAMEN KINGDOMWAY BIOTECH. CO., LTD., priority 2024, published 2025).

How the values were obtained:
[1] = Determination of pH value of SAMe microcapsules; type: physicochemical; settings: 1 g of sample added to 100 g of water
Procedure: 1 g of each of the above samples was taken and added to 100 g of water, and the pH value was measured.

[2] = system: mouse gastrointestinal tract; assay: Effect on mouse gastrointestinal tract (indomethacin/ethanol ulcer model, gastric mucosal lesion area); type: in vivo, mice (C57); settings: mice, 5.0 g/kg·bw gavage once a day for 21 days, then indomethacin 10 mg/kg·bw i.p. and 60% ethanol gavage
Text: Experimental animals: Healthy adult mice (C57, purchased from Pabeile Experimental Animal Breeding Co., Ltd.), with body weight of 18 to 22 g.
Experimental materials: The test samples were SAMe microcapsules obtained from the formulas in Examples 1 to 5 and Comparative Examples 1 to 9, and SAMe raw material.
Experimental method: The designed dose (5.0 g/kg·bw) was equivalent to 5 times the recommended dosage for humans, and an ulcer model control group was set. Each group was gavaged with the test sample once a day, and the control group was fed with an equal volume of distilled water. After 21 consecutive days of feeding, the animals were fasted for 1 day. 0.5 h after the last gavage, the mice of each group were intraperitoneally injected with indomethacin suspension (purchased from Liaoyang Helin Pharmaceutical Co., Ltd.) (10 mg/kg·bw), and 1 h later, the mice were gavaged with 60% ethanol ([…]). After 1 h, the mice were killed by cervical dislocation, laparotomy and ligation of pylorus were carried out, and 1 mL of 1% formalin was orally gavaged. The cardia was immediately ligated and the entire stomach was cut off. After flushing the stomach contents, the stomach was spread on a glass plate. Under a shadowless magnifying lamp, the area of gastric mucosal lesions was measured and statistically analyzed.

In the case of “S-Adenosyl-L-methionine Disulfate Tosylate [SAMe raw material]”, the pH value [1] is reported as 1.3 and the “Lesion area (gastric mucosal lesions)” value [2] is reported as 11.57 ± 4.35 mm^2.
